In patent publication US10072026B2, “Crystalline form of 3-((1R,3s,5S)-3-((7-((5-methyl-1H-pyrazol-3-yl)amino)-1,6-naphthyridin-5-yl)amino)-8-azabicyclo[3.2.1]octan-8-yl)propanenitrile” (priority 2015, dated 2018):

What was measured:
JAK3 = JAK3 (Homo sapiens (Human), UniProt P52333); test: LanthaScreen JAK biochemical assay (JAK3)
JAK1 = JAK1 (Homo sapiens (Human), UniProt P23458); test: LanthaScreen JAK biochemical assay (JAK1)
[1] = tested on: IL-4 induced STAT6 phosphorylation in THP-1 human monocytic cells; test: Cellular JAK potency assay, THP-1
JAK2 = JAK2 (Homo sapiens (Human), UniProt O60674); test: LanthaScreen JAK biochemical assay (JAK2)
[2] = tested on: IL-13 induced STAT6 phosphorylation in BEAS-2B human lung epithelial cells; test: AlphaScreen cellular JAK potency assay, BEAS-2B
Tyk2 = Tyk2 (Homo sapiens (Human), UniProt P29597); test: LanthaScreen JAK biochemical assay (Tyk2)
[3] = THP-1 cells, IL-4 induced STAT6 phosphorylation
[4] = IL-4 induced STAT6 phosphorylation, THP-1 cells
[5] = BEAS-2B cells, IL-13 induced STAT6 phosphorylation

Chain of JAK1 (P23458 whole entry): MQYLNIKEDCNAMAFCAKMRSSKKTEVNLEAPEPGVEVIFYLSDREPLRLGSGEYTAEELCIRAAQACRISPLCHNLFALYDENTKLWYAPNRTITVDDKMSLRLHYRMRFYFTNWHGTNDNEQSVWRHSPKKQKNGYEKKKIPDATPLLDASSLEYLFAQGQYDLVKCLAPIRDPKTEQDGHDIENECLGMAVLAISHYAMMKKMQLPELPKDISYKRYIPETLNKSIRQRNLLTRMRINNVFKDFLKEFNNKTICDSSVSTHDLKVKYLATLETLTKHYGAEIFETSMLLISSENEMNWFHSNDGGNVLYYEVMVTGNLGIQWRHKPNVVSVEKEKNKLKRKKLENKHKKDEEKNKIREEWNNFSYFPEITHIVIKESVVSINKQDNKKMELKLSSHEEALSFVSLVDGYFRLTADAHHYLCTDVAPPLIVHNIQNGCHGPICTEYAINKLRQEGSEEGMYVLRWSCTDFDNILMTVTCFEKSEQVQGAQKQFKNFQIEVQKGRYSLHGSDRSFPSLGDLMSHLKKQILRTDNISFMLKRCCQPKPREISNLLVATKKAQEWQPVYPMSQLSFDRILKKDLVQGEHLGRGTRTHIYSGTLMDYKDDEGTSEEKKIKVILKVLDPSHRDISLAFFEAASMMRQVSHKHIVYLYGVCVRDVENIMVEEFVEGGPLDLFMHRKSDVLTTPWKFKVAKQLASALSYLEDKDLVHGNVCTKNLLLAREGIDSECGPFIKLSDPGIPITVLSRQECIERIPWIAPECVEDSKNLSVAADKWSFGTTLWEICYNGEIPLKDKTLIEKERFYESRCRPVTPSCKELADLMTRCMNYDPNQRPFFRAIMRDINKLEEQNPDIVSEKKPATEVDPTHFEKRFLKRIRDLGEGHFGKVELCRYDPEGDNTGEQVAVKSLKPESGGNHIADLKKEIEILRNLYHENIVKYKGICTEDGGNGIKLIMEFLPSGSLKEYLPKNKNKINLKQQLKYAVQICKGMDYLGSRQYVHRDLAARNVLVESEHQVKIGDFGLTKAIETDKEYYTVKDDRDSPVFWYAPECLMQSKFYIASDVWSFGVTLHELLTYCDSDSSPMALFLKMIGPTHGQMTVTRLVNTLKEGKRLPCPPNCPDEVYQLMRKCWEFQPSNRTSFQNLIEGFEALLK
Chain of JAK2 (O60674 whole entry): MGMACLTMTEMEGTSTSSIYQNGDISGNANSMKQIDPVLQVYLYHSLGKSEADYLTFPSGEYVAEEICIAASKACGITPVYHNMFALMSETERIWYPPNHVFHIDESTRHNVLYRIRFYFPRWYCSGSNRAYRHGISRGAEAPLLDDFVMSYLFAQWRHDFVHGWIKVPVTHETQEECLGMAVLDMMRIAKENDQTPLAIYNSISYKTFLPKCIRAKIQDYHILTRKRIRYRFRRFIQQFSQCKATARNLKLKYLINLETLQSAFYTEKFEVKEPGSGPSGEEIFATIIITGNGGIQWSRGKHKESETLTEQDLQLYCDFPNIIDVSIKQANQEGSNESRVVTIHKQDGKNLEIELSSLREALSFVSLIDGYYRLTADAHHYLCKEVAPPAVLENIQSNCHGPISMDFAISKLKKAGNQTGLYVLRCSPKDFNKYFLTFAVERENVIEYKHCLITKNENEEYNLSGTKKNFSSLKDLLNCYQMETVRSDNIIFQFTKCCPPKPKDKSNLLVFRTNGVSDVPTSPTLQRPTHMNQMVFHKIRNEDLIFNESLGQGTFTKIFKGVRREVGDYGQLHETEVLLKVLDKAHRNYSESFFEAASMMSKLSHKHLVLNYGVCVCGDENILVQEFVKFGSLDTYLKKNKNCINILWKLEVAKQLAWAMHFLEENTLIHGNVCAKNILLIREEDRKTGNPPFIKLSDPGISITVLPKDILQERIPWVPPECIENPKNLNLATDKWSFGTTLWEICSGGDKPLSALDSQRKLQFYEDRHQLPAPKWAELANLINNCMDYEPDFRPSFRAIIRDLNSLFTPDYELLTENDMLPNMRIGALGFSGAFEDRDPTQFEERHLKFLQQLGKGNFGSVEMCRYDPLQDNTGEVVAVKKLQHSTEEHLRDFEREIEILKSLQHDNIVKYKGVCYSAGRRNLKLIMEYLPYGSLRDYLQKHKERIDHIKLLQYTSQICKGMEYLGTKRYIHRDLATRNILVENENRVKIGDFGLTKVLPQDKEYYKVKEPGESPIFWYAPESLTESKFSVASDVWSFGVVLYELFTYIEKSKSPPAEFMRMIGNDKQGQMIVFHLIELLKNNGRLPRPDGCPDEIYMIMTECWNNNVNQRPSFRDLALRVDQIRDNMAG
Chain of Tyk2 (P29597 whole entry): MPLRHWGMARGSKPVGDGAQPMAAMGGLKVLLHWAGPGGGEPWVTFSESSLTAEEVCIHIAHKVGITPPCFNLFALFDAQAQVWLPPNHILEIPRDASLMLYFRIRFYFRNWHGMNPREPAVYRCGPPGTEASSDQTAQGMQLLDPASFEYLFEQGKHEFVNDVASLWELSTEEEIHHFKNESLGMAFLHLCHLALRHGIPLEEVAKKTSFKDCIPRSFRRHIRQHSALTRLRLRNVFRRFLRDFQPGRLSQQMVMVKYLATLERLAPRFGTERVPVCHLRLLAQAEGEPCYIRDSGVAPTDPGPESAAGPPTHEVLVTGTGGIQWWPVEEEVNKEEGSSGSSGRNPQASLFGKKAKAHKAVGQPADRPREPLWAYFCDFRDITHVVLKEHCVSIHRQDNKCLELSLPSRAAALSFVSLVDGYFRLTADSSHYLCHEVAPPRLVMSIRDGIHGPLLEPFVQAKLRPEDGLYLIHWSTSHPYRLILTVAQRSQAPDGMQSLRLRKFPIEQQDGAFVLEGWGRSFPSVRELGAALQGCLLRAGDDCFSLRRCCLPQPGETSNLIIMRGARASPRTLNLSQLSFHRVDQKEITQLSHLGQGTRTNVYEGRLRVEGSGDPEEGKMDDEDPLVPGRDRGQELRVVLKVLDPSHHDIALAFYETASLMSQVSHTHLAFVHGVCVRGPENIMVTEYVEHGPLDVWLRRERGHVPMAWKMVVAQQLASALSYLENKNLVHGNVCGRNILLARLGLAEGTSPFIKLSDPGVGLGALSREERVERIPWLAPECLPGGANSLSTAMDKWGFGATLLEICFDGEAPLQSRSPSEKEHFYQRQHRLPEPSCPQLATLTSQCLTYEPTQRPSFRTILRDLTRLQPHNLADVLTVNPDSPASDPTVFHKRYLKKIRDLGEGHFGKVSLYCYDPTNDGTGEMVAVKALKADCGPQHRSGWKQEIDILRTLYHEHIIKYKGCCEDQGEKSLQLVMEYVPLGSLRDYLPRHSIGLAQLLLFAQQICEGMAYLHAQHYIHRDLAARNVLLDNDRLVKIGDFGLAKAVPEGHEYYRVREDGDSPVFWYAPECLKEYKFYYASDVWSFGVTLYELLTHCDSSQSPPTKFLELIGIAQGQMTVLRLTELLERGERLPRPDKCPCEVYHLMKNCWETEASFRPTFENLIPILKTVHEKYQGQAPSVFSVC

Compound | JAK 3 (pKi) (JAK3) | JAK 1 (pKi) (JAK1) | THP-1 IL4 pIC50 [1, 3] | JAK 2 (pKi) (JAK2) | THP-1 IL4 pIC50 [1, 4] | also measured
COc1cnc2cc(Nc3cc(C)[nH]n3)nc(N[C@@H]3C[C@H]4CC[C@@H](C3)N4CCF)c2c1 [Example 6-13] | C (C represents a pKi value between 7 and 9 (Ki between 100 nM and 1 nM)) | B (B represents a pKi value between 9 and 10 (Ki between 1 nM and 0.1 nM)) | B (B represents a pEC50 value between 6.7 and 7.5 (EC50 between 200 nM and 32 nM)) |  |  | 
Cc1cc(Nc2cc3ncccc3c(N[C@@H]3C[C@H]4CCC[C@@H](C3)N4CC(=O)N[C@H]3CCOC3=O)n2)n[nH]1 [Example 1-42] | B (B represents a pKi value between 9 and 10 (Ki between 1 nM and 0.1 nM)) |  |  | A (A represents a pKi value≥10 (Ki≤0.1 nM)) | C (C represents a pEC50 value<6.7 (EC50>200 nM)) | 
Cc1cc(Nc2cc3ncc(S(C)(=O)=O)cc3c(N[C@@H]3C[C@H]4CC[C@@H](C3)N4C(=O)CC#N)n2)n[nH]1 [Example 6-51] | C (C represents a pKi value between 7 and 9 (Ki between 100 nM and 1 nM)) | B (B represents a pKi value between 9 and 10 (Ki between 1 nM and 0.1 nM)) | C (C represents a pEC50 value<6.7 (EC50>200 nM)) | B (B represents a pKi value between 9 and 10 (Ki between 1 nM and 0.1 nM)) |  | 
COc1ccc2c(N[C@@H]3C[C@H]4CC[C@@H](C3)N4CCF)nc(Nc3cc(C)[nH]n3)cc2n1 [Example 5-3] | C (C represents a pKi value between 7 and 9 (Ki between 100 nM and 1 nM)) | B (B represents a pKi value between 9 and 10 (Ki between 1 nM and 0.1 nM)) |  |  | B (B represents a pEC50 value between 6.7 and 7.5 (EC50 between 200 nM and 32 nM)) | 
Cc1cc(Nc2nc(N[C@@H]3C[C@H]4CC[C@@H](C3)N4CCC#N)c3cccnc3c2F)n[nH]1 [Example 8-1] | C (C represents a pKi value between 7 and 9 (Ki between 100 nM and 1 nM)) | B (B represents a pKi value between 9 and 10 (Ki between 1 nM and 0.1 nM)) | B (B represents a pEC50 value between 6.7 and 7.5 (EC50 between 200 nM and 32 nM)) | B (B represents a pKi value between 9 and 10 (Ki between 1 nM and 0.1 nM)) |  | 
C=CCOC(=O)N1[C@@H]2CC[C@H]1C[C@H](Nc1nc(Nc3cc(C)[nH]n3)cc3ncc(OC)cc13)C2 [Example 6-19] | C (C represents a pKi value between 7 and 9 (Ki between 100 nM and 1 nM)) | B (B represents a pKi value between 9 and 10 (Ki between 1 nM and 0.1 nM)) | B (B represents a pEC50 value between 6.7 and 7.5 (EC50 between 200 nM and 32 nM)) |  |  | 
Cc1cc(Nc2cc3ncccc3c(N[C@@H]3C[C@H]4CC[C@@H](C3)N4CC(=O)N(C)C)n2)n[nH]1 [Example 1-8] | C (C represents a pKi value between 7 and 9 (Ki between 100 nM and 1 nM)) | B (B represents a pKi value between 9 and 10 (Ki between 1 nM and 0.1 nM)) |  |  | C (C represents a pEC50 value<6.7 (EC50>200 nM)) | 
Cc1cc(Nc2cc3ncccc3c(N[C@@H]3C[C@H]4CC[C@@H](C3)N4C(=O)CN(C)C)n2)n[nH]1 [Example 2-5] | C (C represents a pKi value between 7 and 9 (Ki between 100 nM and 1 nM)) | B (B represents a pKi value between 9 and 10 (Ki between 1 nM and 0.1 nM)) |  |  | C (C represents a pEC50 value<6.7 (EC50>200 nM)) | 
CCS(=O)(=O)N1[C@@H]2CCC[C@H]1C[C@H](Nc1nc(Nc3cc(C)[nH]n3)cc3nc(CN4CCOCC4)ccc13)C2 [Example 5-23] | B (B represents a pKi value between 9 and 10 (Ki between 1 nM and 0.1 nM)) | A (A represents a pKi value≥10 (Ki≤0.1 nM)) |  | A (A represents a pKi value≥10 (Ki≤0.1 nM)) | A (A represents a pEC50 value≥7.5 (EC50≤32 nM)) | 
CCC(CC#N)N1[C@@H]2CC[C@H]1C[C@H](Nc1nc(Nc3cc(C)[nH]n3)cc3ncccc13)C2 (stereo partly shown) [Example 1-22] |  | B (B represents a pKi value between 9 and 10 (Ki between 1 nM and 0.1 nM)) |  | B (B represents a pKi value between 9 and 10 (Ki between 1 nM and 0.1 nM)) | B (B represents a pEC50 value between 6.7 and 7.5 (EC50 between 200 nM and 32 nM)) | BEAS2B pIC50 ([2]; IL-13 induced STAT6 phosphorylation, BEAS-2B cells): A (A represents a pEC50 value≥7.5 (EC50≤32 nM)); Tyk 2 (pKi) (Tyk2): B (B represents a pKi value between 9 and 10 (Ki between 1 nM and 0.1 nM))
Cc1cc(Nc2nc(N[C@@H]3C[C@H]4CCC[C@@H](C3)N4CCC#N)c3cccnc3c2F)n[nH]1 [Example 8-9] | C (C represents a pKi value between 7 and 9 (Ki between 100 nM and 1 nM)) | B (B represents a pKi value between 9 and 10 (Ki between 1 nM and 0.1 nM)) | B (B represents a pEC50 value between 6.7 and 7.5 (EC50 between 200 nM and 32 nM)) | B (B represents a pKi value between 9 and 10 (Ki between 1 nM and 0.1 nM)) |  | 
COc1ccc2c(N[C@@H]3C[C@H]4CC[C@@H](C3)N4S(C)(=O)=O)nc(Nc3cc(C)[nH]n3)cc2n1 [Example 5-9] |  |  |  |  |  | IC50 ([2]; Homo sapiens, BEAS-2B, read-out: BEAS2B pIC50 (converted)): < 31.6 nM; Ki (JAK1; read-out: JAK 1 (pKi) (converted)): 0.1 to 1 nM; Ki (JAK2; read-out: JAK 2 (pKi) (converted)): 0.1 to 1 nM; Ki (Tyk2; read-out: Tyk 2 (pKi) (converted)): 0.1 to 1 nM; IC50 ([1]; Homo sapiens, THP-1, read-out: THP-1 IL4 pIC50 (converted)): < 31.6 nM
Cc1cc(Nc2cc3ncccc3c(N[C@@H]3C[C@H]4CCC[C@@H](C3)N4Cc3ccc(O)cc3)n2)n[nH]1 [Example 1-50] | C (C represents a pKi value between 7 and 9 (Ki between 100 nM and 1 nM)) | A (A represents a pKi value≥10 (Ki≤0.1 nM)) |  | A (A represents a pKi value≥10 (Ki≤0.1 nM)) | B (B represents a pEC50 value between 6.7 and 7.5 (EC50 between 200 nM and 32 nM)) | 
Cc1cc(Nc2nc(N[C@@H]3C[C@H]4CC[C@@H](C3)N4C(=O)CN(C)C)c3cccnc3c2F)n[nH]1 [Example 8-7] | C (C represents a pKi value between 7 and 9 (Ki between 100 nM and 1 nM)) |  | C (C represents a pEC50 value<6.7 (EC50>200 nM)) |  |  | 
Cc1cc(Nc2cc3ncccc3c(N[C@@H]3C[C@H]4CCC[C@@H](C3)N4CC(=O)N[C@@H]3CCOC3=O)n2)n[nH]1 [Example 1-41] | B (B represents a pKi value between 9 and 10 (Ki between 1 nM and 0.1 nM)) |  |  | A (A represents a pKi value≥10 (Ki≤0.1 nM)) | C (C represents a pEC50 value<6.7 (EC50>200 nM)) | 
Cc1cc(Nc2cc3ncccc3c(N[C@@H]3C[C@H]4CC[C@@H](C3)N4CC(N)=O)n2)n[nH]1 [Example 1-6] | C (C represents a pKi value between 7 and 9 (Ki between 100 nM and 1 nM)) | B (B represents a pKi value between 9 and 10 (Ki between 1 nM and 0.1 nM)) |  | B (B represents a pKi value between 9 and 10 (Ki between 1 nM and 0.1 nM)) | C (C represents a pEC50 value<6.7 (EC50>200 nM)) | 
Cc1cc(Nc2cc3ncccc3c(N[C@@H]3C[C@H]4CCC[C@@H](C3)N4S(=O)(=O)C3CNC3)n2)n[nH]1 [Example 4-21] | C (C represents a pKi value between 7 and 9 (Ki between 100 nM and 1 nM)) |  |  | B (B represents a pKi value between 9 and 10 (Ki between 1 nM and 0.1 nM)) | C (C represents a pEC50 value<6.7 (EC50>200 nM)) | 
CNC(=O)CN1[C@@H]2CC[C@H]1C[C@H](Nc1nc(Nc3cc(C)[nH]n3)cc3ncc(C(=O)OC)cc13)C2 [Example 6-42] | C (C represents a pKi value between 7 and 9 (Ki between 100 nM and 1 nM)) | B (B represents a pKi value between 9 and 10 (Ki between 1 nM and 0.1 nM)) | C (C represents a pEC50 value<6.7 (EC50>200 nM)) | B (B represents a pKi value between 9 and 10 (Ki between 1 nM and 0.1 nM)) |  | 
COC(=O)CCN1[C@@H]2CCC[C@H]1C[C@H](Nc1nc(Nc3cc(C)[nH]n3)cc3ncccc13)C2 [Example 1-33] | C (C represents a pKi value between 7 and 9 (Ki between 100 nM and 1 nM)) | B (B represents a pKi value between 9 and 10 (Ki between 1 nM and 0.1 nM)) |  | B (B represents a pKi value between 9 and 10 (Ki between 1 nM and 0.1 nM)) | C (C represents a pEC50 value<6.7 (EC50>200 nM)) | 
COc1cnc2cc(Nc3cc(C)[nH]n3)nc(N[C@@H]3C[C@H]4CC[C@@H](C3)N4C(=O)OCC(C)C)c2c1 [Example 6-25] | C (C represents a pKi value between 7 and 9 (Ki between 100 nM and 1 nM)) |  | B (B represents a pEC50 value between 6.7 and 7.5 (EC50 between 200 nM and 32 nM)) |  |  | BEAS2B pIC50 [2, 5]: A (A represents a pEC50 value≥7.5 (EC50≤32 nM))
COc1cnc2cc(Nc3cc(C)[nH]n3)nc(N[C@@H]3C[C@H]4CCC[C@@H](C3)N4CCC#N)c2c1 [Example 6-31] |  | B (B represents a pKi value between 9 and 10 (Ki between 1 nM and 0.1 nM)) | A (A represents a pEC50 value≥7.5 (EC50≤32 nM)) | B (B represents a pKi value between 9 and 10 (Ki between 1 nM and 0.1 nM)) |  | BEAS2B pIC50 [2, 5]: A (A represents a pEC50 value≥7.5 (EC50≤32 nM)); Tyk 2 (pKi) (Tyk2): B (B represents a pKi value between 9 and 10 (Ki between 1 nM and 0.1 nM))
Cc1cc(Nc2cc3nc(CN4CCN(C)CC4)ccc3c(N[C@@H]3C[C@H]4CC[C@@H](C3)N4CC(C)C)n2)n[nH]1 [Example 5-38] | C (C represents a pKi value between 7 and 9 (Ki between 100 nM and 1 nM)) |  |  |  |  | 
Cc1cc(Nc2cc3nc(CN4CCN(C)CC4)ccc3c(N[C@@H]3C[C@H]4CC[C@@H](C3)N4CCC#N)n2)n[nH]1 [Example 5-37] | B (B represents a pKi value between 9 and 10 (Ki between 1 nM and 0.1 nM)) |  |  |  | B (B represents a pEC50 value between 6.7 and 7.5 (EC50 between 200 nM and 32 nM)) | 
